# Tested on: human colon cancer cell line SW620
# Assay: In vivo anticancer effect, SW620 transplanted nude mice
# Set-up: species or system BALB/c nude mice
# Procedure: Female SPF BALB/c nude mice purchased from Charles River, Japan, were used as test animals. They were at 6 weeks and weighed 14-17 g. Before being used for experiments, the test animals were adapted at least one week in a clean animal lab. Temperature of the animal lab was 21±2° C. and humidity was set at 55±5%. Light/dark cycle was automatically regulated as 12/12. The solid feeds for the test animals were radiation sterilized products (Polas International, Seoul, Korea). Drinking water was sterilized by autoclave. Feeds and drinking water were given freely.
# For the cancer cell line, human colon cancer cell line SW620 purchased from ATCC, USA and stored at Korean Research Institute of Bioscience and Biotechnology was used. […] On the final day of culture, every cell was collected and counted and the final cell concentration was regulated to 1×10^7 cells/ml by adding saline.
# SW620 cancer cells were hypodermically injected in the right armpit in-between the shoulder and the wall of chest by 0.3 ml at the concentration of 3×10^6 cells/mouse. […] Weight changes of the test animals were measured three times per week. Tumor volume was measured 7 times from day 5 to day 20 in every test animal. Precisely, the tumor volume was measured by measuring three dimensions of the tumor using Vernier Caliper and then calculated by the following formula: […]
compound,measurement,setting,value
COc1cccc2c1C(=O)c1c(O)c3c(c(O)c1C2=O)C[C@@](O)(C(=O)CO)C[C@@H]3O[C@H]1C[C@H](N)[C@H](O)[C@H](C)O1 [adriamycin],weight loss,"adriamycin administered positive control, p<0.001",13.1%
same,tumor growth inhibition,"positive control, P<0.001",58.0%

# From US20090263521A1, “COMPOSITION FOR THE TREATMENT OF CANCERS AND INHIBITION OF METASTASIS CONTAINING EXTRACTS OR FRACTIONS OF THE MAGNOLIA OBOVATA” (KOREA RESEARCH INSTITUTE OF BIOSCIENCE AND BIOTECHNOLOGY, priority 2008, published 2009)
